Numbering of substitutions follows the chain as printed.
Experiments:
[1] = biological target: T1, wild type TNF-R1 (Homo sapiens, UniProt P19438); assay: Surface plasmon resonance, TNF-α binding to wild type TNF-R1; settings: SPR
T1 construct: The ectodomain of wild type TNF receptor 1 was obtained by PCR from pKP13; made in house
T1 sequence (P19438 30-211 limits assumed): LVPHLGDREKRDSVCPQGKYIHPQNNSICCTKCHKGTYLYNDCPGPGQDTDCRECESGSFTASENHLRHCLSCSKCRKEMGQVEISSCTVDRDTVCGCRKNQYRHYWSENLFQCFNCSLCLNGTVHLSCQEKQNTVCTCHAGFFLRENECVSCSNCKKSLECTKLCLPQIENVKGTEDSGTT
Excerpt: (§1) Mutations of the TNF-R1 receptor were made at residues 82Q and 112F in the cavity, which were mutated to 82E and 112E respectively. The structural integrity of the mutant receptor was verified by ligand binding in surface plasmon resonance (SPR) studies. […] TNF-α retained the ability to bind to the mutant receptor, albeit with somewhat reduced affinity. These studies confirm that the test compound bound to a single and specific cavity on wild type TNF-R1.
(§2) Recombinant TNF receptor wild type and mutant were immobilized to the CM5 sensor chip with a surface density of 2,000 resonance units. The binding affinity of TNF-α to TNF-R1 was estimated by BiaCORE 3000 (BiaCORE, Uppsala, Sweden) at 25° C. The apparent rate constants (kon and koff) and the equilibrium binding constant (Kd) for TNF/TNF-R binding interaction were estimated from the kinetic analysis of sensorgrams, using the BIA evaluation 3.0 software (BiaCORE).

[2] = biological target: T2, mutant TNF-R1 (Homo sapiens, UniProt P19438, F141E/Q111E); assay: Surface plasmon resonance, TNF-α binding to mutant TNF-R1; settings: SPR, mutant TNF-R1 (82E, 112E)
T2 construct: The ectodomain of wild type TNF receptor 1 was obtained by PCR from pKP13; made in house
T2 sequence (P19438 30-211 Q111E/F141E limits assumed): T1 sequence (P19438 30-211 limits assumed) with Q82E, F112E
Excerpt: as §1, §2

## TNF-α
[1]
  Kd: 0.000379 µM
[2]
  Kd: 4.65 µM

From US9096607B2, “Tumor necrosis factor inhibitors” (THE TRUSTEES OF THE UNIVERSITY OF PENNSYLVANIA, priority 2005, dated 2015)
